In US11590240B2, “Nano-fibular nanoparticle polymer-drug conjugate for sustained dermal delivery of retinoids” (Massachusetts Institute of Technology, priority 2015, dated 2023):

Legend:
[1] = Solubility of free ATRA and PATRA in different solutions (UV absorbance of supernatant); format: physicochemical
Procedure: Solubility was evaluated by bringing 2 mg/ml of ATRA either free or conjugated to PVA into equilibrium at room temperature for 1 hour, followed by centrifugation of the solution at 1,500 rpm for five minutes to remove undissolved precipitate. The supernatant from this process was then used for the testing of ATRA concentration via UV absorbance as previously described.

[2] = tested on: Balb/CJ mouse; assay: Irritation after topical application to mouse dermis (digital imaging, H&E histology); format: in vivo; conditions: for gross appearance of treated skin: 10 μM ATRA dosing equivalent, topical
Procedure: Mice used for the assessment of irritation were given each of the two different treatments on 1 cm^2 regions of their dorsum, these included PATRA, ATRA, PVA, and PBS. A total of twelve mice were used in this assessment. 50 μL of 10 μM ATRA solution was placed on two 1 cm^2 shaved areas on the flanks of a Balb/CJ mouse on either side of midline. PATRA (0.092 mg mL^−1) and PVA (0.089 mg mL^−1) concentrations were controlled for 10 μM ATRA dosing. These solutions were rubbed into the skin using a cotton-tipped applicator for 30 seconds.
Tissues were fixed in zinc fixative without formalin for 48 hours. The excised tissues were cut on center and then embedded cut-face down in paraffin. Sections were taken at the wound center and at one further level of 500 μm reaching a total of 1 mm sampling length through the application site. At each level an H&E slide was stained. Unstained slides were also taken for potential IHC analysis of the tissue. All sections were 5 μm thick. Image analysis was performed using Image J.
To investigate the relative irritative nature of PATRA in comparison to ATRA, each was tested on the flanks of mice. Irritation was evaluated by digital imaging of the application site of ATRA, PATRA, or control solutions for up to five days post-application as well as by histological evaluation of inflammation after 5 days. In brief, 50 μL of 10 μM ATRA solution was placed on a 1 cm^2 shaved area on the flank of a Balb/CJ mouse. PATRA (0.092 mg mL^−1) and PVA (0.089 mg mL^−1) concentrations were controlled for 10 μM ATRA dosing. This solution is rubbed into the skin using a cotton-tipped applicator for 30 seconds. Each mouse received one of the four different material solutions applied in two locations. Inflammation and dermal changes subsequent to ATRA application were evaluated by both by digital imaging and by H&E histology.

[3] = Uptake, retention and penetration of ATRA in pig skin, Franz diffusion cell; format: in vitro ADME
Procedure: Uptake, retention, and penetration of ATRA in pig skin were investigated using a Franz diffusion cell as described and known in the art. Skin was harvested from the flanks of adult female Yorkshire pigs 1 hour after sacrifice with subcutaneous fat removed. Skin was sectioned and frozen at −80° C. for up to six months prior to use. Skin was prepared for diffusion experiments by thawing in PBS for one hour after which time all hair on the skin was shaven off. Test samples of skin were cut to 30 mm×30 mm square samples and placed into the diffusion cell such that the top of the dermis faced a 3 mL testing retention reservoir and the underside faced a 15 mL penetration reservoir. […]
Samples were placed into the retention reservoir at a concentration of 0.1 mg/mL and followed for up to 12 hours. ATRA concentration was evaluated in both the retention and penetration reservoirs every four hours during this period via UV absorbance measurements. […] For both groups, the penetration reservoir was filled with a hydroalcoholic solution so that the ATRA that could penetrate the skin would be soluble for UV absorbance measurement. […]
Samples to be tested were placed into the retention reservoir at a concentration of 0.1 mg/mL and followed for up to 12 hours. ATRA concentration was evaluated in both the retention and penetration reservoirs every four hours during this period via UV absorbance measurements. […]

solubility, in words ([1]; PBS 1× (pH7.4)): insoluble | solubility, in words ([1]; deionized water): insoluble | fraction of ATRA accumulated within the treated skin ([3]; 12 hours of exposure, 0.1 mg/mL in retention reservoir, room temperature): 1.9±0.9%
Compound: CC1=C(/C=C/C(C)=C/C=C/C(C)=C/C(=O)O)C(C)(C)CCC1 [ATRA, All-trans retinoic acid]
stratum corneum (SC) and epidermal thickness, histology ([2]; after 5 days): Significantly increased | gross appearance of treated skin ([2]; five days post-application): still has a rash-like quality with a thick and calloused appearance | gross appearance of treated skin ([2]; three days post-application): begins to appear inflamed after three days | ATRA in the receiving (penetration) reservoir, free ATRA versus PATRA ([3]; every four hours up to 12 hours): much higher level of ATRA accumulation at every time point tested
